The source of these data is patent US20210230178A1, “TRIOXACARCIN ANALOGS AND DIMERS AS POTENT ANTICANCER AGENTS” (William Marsh Rice University, priority 2017, published 2021).

Read-outs that look alike come from different tables or passages of the source.

Usually IC50 stands for the concentration that gives 50% inhibition.

Series [1] has as its system HEK 293T (human embryonic kidney cancer cell line). Conditions: for IC50: read-out: IC50 HEK 293T.
The test system is the same in series [2]. Nature of the series: cells. The note with it: 72 h, read-out: IC50 HEK 293T.
For series [3], the system named is MES SA DX (human uterine sarcoma cell line with marked multidrug resistance). Put plainly: cells. The note with it: 72 h, read-out: IC50 MES SA DX.
Series [4] relates to MES SA (human uterine sarcoma). Conditions: for IC50: read-out: IC50 MES SA.
For series [5], the system named is MES SA DX (human uterine sarcoma cell line with marked multidrug resistance). The note with it: for IC50: read-out: IC50 MES SA DX.
In series [6] the test system is MES SA (human uterine sarcoma). Put plainly: cells. The note with it: 72 h, read-out: IC50 MES SA.

As to `COc1c2c(c(OC(C)=O)c3c4c(c(C)cc13)[C@H]1O[C@]3(C5OCCCO5)O[C@@H]1[C@@](OC(C)=O)(O4)[C@@]31CO1)C(=O)CCC2` [Trx26, (1S,2S,3aS,4R,13aS)-2-(1,3-Dioxan-2-yl)-7-methoxy-5-methyl-11-oxo-3a,4,8,9,10,11-hexahydro-13aH-spiro[2,4-epoxyfuro[3,2-b]naphtho[2,3-h]chromene-1,2′-oxirane]-12,13a-diyl diacetate], the “cytotoxic potency against HEK 293T, in words” value in series [1] is given as “no significant loss of potency”. The figures for the concentration for half-maximal inhibition (IC50) in series [2], in series [3] and in series [6] were 11.6 nM, 60.3 nM and 67.4 nM, respectively. For the same compound, the “cytotoxic potency against MES SA, in words” value in series [4] is “no significant loss of potency”. The “cytotoxic potency against MES SA DX, in words” value in series [5] is reported as “no significant loss of potency”.

With `COc1c2c(c(O)c3c4c(c(C)cc13)C1OC3(C5OCCCO5)OC1[C@@](OCC=CCO[C@@]15Oc6c(c(C)cc7c(OC)c8c(c(O)c67)C(=O)CCC8)C6OC(C7OCCCO7)(OC61)[C@]51CO1)(O4)[C@@]31CO1)C(=O)CCC2` (stereo partly drawn) [Trx25, (1S,2S,3aS,4R,13aR,1′″S,2′″S,3a′″S,4′R,13a′″R)-13a,13a′-[(2E)-but-2-ene-1,4-diylbis(oxy)]bis[2-(1,3-dioxan-2-yl)-12-hydroxy-7-methoxy-5-methyl-3a,4,8,9,10,13a-hexahydro-11H-spiro[2,4-epoxyfuro[3,2-b]naphtho[2,3-h]chromene-1,2′-oxiran]-11-one]], the IC50 was 105 nM in series [1], 235 nM in series [4] and 429 nM in series [5].

Turning to `COc1c2c(c(OC(C)=O)c3c4c(c(C)cc13)[C@H]1O[C@]3(C5OCCCO5)O[C@@H]1[C@@](OC)(O4)[C@@]31CO1)C(=O)CCC2` [Trx27, (1S,2S,3aS,4R,13aR)-2-(1,3-Dioxan-2-yl)-7,13a-dimethoxy-5-methyl-11-oxo-3a,8,9,10,11,13a-hexahydro-4H-spiro[2,4-epoxyfuro[3,2-b]naphtho[2,3-h]chromene-1,2′-oxiran]-12-yl acetate], the “cytotoxic potency against HEK 293T, in words” value in series [1] is reported as “no significant loss of potency”. For the same compound, the results for the IC50 in series [2], in series [3] and in series [6] were 1.24 nM, 1.43 nM and 2.15 nM, respectively. Also, the “cytotoxic potency against MES SA, in words” value in series [4] is given as “no significant loss of potency”. In addition, in series [5], the “cytotoxic potency against MES SA DX, in words” value is “no significant loss of potency”.

For `COc1c2c(c(O)c3c4c(c(C)cc13)C1OC3(C5OCCCO5)OC1[C@@](OC)(O4)[C@@]31CO1)C(=O)CCC2` (stereo partly drawn) [Trx13], the half-maximal inhibitory concentration (IC50) stood at 0.4 nM in series [1]; 0.5 nM in series [2]; 0.38 nM in series [3]; 0.56 nM in series [4]; 0.42 nM in series [5]; 0.53 nM in series [6].
